Drawing on PubChem BioAssay AID248 (DTP/NCI, 2004), this text covers T/C for 16 molecules.

This test concerns L1210 leukemia ip in BDF1 mice, survival T/C. Briefly: NCI In Vivo Anticancer Drug Screen. Data for tumor model L1210 Leukemia (intraperitoneal) in B6D2F1 (BDF1) mice. The settings on record: endpoint: mean survival time, higher = longer survival. On the procedure:
The antitumor activity of compounds was measured in mice bearing transplantable tumors. Survival or tumor size were measured and the results are expressed as the measurement made in the treated group (T) divided by the measurement made in the vehicle treated control group (C). The tumor model used in this assay is L1210 Leukemia (intraperitoneal) in B6D2F1 (BDF1) mice

The mark [1] stands for this setting: dose: 100.0 mg/kg/injection, schedule: Q01DX001 (ip), vehicle: Klucel (hydroxypropylcellulose) (HPC).
[2] abbreviates: dose: 100.0 mg/kg/injection, schedule: Q04DX003 (ip), vehicle: Klucel (hydroxypropylcellulose) (HPC).
Where [3] appears, read: dose: 200.0 mg/kg/injection, schedule: Q01DX001 (ip), vehicle: Klucel (hydroxypropylcellulose) (HPC).
The mark [4] stands for this setting: dose: 200.0 mg/kg/injection, schedule: Q04DX003 (ip), vehicle: Klucel (hydroxypropylcellulose) (HPC).
[5] abbreviates: dose: 400.0 mg/kg/injection, schedule: Q01DX001 (ip), vehicle: Klucel (hydroxypropylcellulose) (HPC).
Setting [6] is: dose: 12.5 mg/kg/injection, schedule: Q01DX009 (ip), vehicle: saline.
Where [7] appears, read: dose: 25.0 mg/kg/injection, schedule: Q01DX009 (ip), vehicle: saline.
The mark [8] stands for this setting: dose: 50.0 mg/kg/injection, schedule: Q01DX009 (ip), vehicle: saline.
[9] abbreviates: dose: 100.0 mg/kg/injection, schedule: Q01DX009 (ip), vehicle: saline.
Where [10] appears, read: dose: 100.0 mg/kg/injection, schedule: Q04DX003 (ip), vehicle: saline with Tween-80.
The mark [11] stands for this setting: dose: 200.0 mg/kg/injection, schedule: Q04DX003 (ip), vehicle: saline with Tween-80.
The mark [12] stands for this setting: dose: 100.0 mg/kg/injection, schedule: Q01DX001 (ip), vehicle: saline with Tween-80.
Where [13] appears, read: dose: 200.0 mg/kg/injection, schedule: Q01DX001 (ip), vehicle: saline with Tween-80.
[14] abbreviates: dose: 100.0 mg/kg/injection, schedule: Q01DX009 (ip), vehicle: Klucel (hydroxypropylcellulose) (HPC).
Where [15] appears, read: dose: 200.0 mg/kg/injection, schedule: Q01DX009 (ip), vehicle: Klucel (hydroxypropylcellulose) (HPC).
[16] abbreviates: dose: 400.0 mg/kg/injection, schedule: Q01DX009 (ip), vehicle: Klucel (hydroxypropylcellulose) (HPC).
[17] abbreviates: dose: 400.0 mg/kg/injection, schedule: Q04DX003 (ip), vehicle: Klucel (hydroxypropylcellulose) (HPC).

SMILES strings stand for the structures. Several values for one entry are separate records, joined by “and”; a condition that tells them apart may be missing. Equal entries are not always repeated. Toxic doses and inconclusive results are not listed.

In the case of `COC(=O)N1C2C3C(C)=C(C)C2(C)C3(C)S1(=O)=O` (configuration not stated), the T/C under setting [1] was 93 % of control; the T/C under setting [2] was 101 % of control; the T/C under setting [3] was 93 % of control; the T/C under setting [4] was 106 % of control; the T/C under setting [5] was 97 % of control.

Turning to `COC1C(/C=C/C(C)=O)OC2OC(C)(C)OC21` (configuration not stated), the T/C by setting is: (dose: 6.25 mg/kg/injection, schedule: Q01DX009 (ip), vehicle: saline) 105 % of control; under setting [6], 105 % of control; under setting [7], 107 % of control; under setting [8], 98 % of control; under setting [9], 100 % of control; (dose: 200.0 mg/kg/injection, schedule: Q01DX009 (ip), vehicle: saline) 98 % of control.

As to `O=C1NC(=O)C(c2ccc(O)cc2)N1` (configuration not stated), the T/C is, setting by setting: (dose: 50.0 mg/kg/injection, schedule: Q01DX001 (ip), vehicle: saline) 105 % of control; (dose: 100.0 mg/kg/injection, schedule: Q01DX001 (ip), vehicle: saline) 100 % of control; (dose: 100.0 mg/kg/injection, schedule: Q01DX009 (ip), vehicle: saline with Tween-80) 91 % of control; under setting [10], 103 % of control; (dose: 200.0 mg/kg/injection, schedule: Q01DX001 (ip), vehicle: saline) 97 % of control; (dose: 200.0 mg/kg/injection, schedule: Q01DX009 (ip), vehicle: saline with Tween-80) 87 % of control. The T/C is 100 % of control under setting [11]; 108 % of control (dose: 400.0 mg/kg/injection, schedule: Q01DX001 (ip), vehicle: saline); 94 % of control (dose: 400.0 mg/kg/injection, schedule: Q04DX003 (ip), vehicle: saline with Tween-80).

As to `O=C(N/N=C\c1ccc(O)cc1)N/N=C/c1ccc(O)cc1`, the T/C by setting is: under setting [1], 94 % of control; under setting [3], 95 % of control; under setting [5], 89 % of control.

Take `C#CCN1C(=O)C(c2ccccc2)C2(CCN(C)CC2)C1=O` (configuration not stated): the T/C was 105 % of control under setting [12] and 108 % of control under setting [13].

In the case of `O=C1c2ccccc2C(=O)c2[nH]c(-c3ccccc3)cc21`, the T/C under setting [12] was 94 % of control; the T/C under setting [13] was 94 % of control; the T/C (dose: 400.0 mg/kg/injection, schedule: Q01DX001 (ip), vehicle: saline with Tween-80) is 94 % of control.

As for `Cc1cn(C2CC(F)C(CO)O2)c(=O)[nH]c1=O` (configuration not stated), the T/C reads like this: under setting [6], 108 % of control; under setting [7], 102 % of control; under setting [8], 117 % of control; (dose: 78.0 mg/kg/injection, schedule: Q01DX009 (ip), vehicle: saline) 107 % of control; under setting [9], 121 % of control; (dose: 130.0 mg/kg/injection, schedule: Q01DX009 (ip), vehicle: saline) 115 % of control. Also, the T/C (dose: 360.0 mg/kg/injection, schedule: Q01DX009 (ip), vehicle: saline) was 109 % of control.

Turning to `O=C(Nc1cccc([N+](=O)[O-])c1)N1CCCC1`, the T/C reads like this: (dose: 100.0 mg/kg/injection, schedule: Q01DX001 (ip), vehicle: carboxymethylcellulose (CMC)) 98 % of control; (dose: 200.0 mg/kg/injection, schedule: Q01DX001 (ip), vehicle: carboxymethylcellulose (CMC)) 102 % of control; (dose: 400.0 mg/kg/injection, schedule: Q01DX001 (ip), vehicle: carboxymethylcellulose (CMC)) 100 % of control.

Take `O=C1OC2(c3ccccc31)c1ccccc1-c1ccccc12`: the T/C runs as follows: under setting [10], 97 % of control; under setting [11], 89 % of control.

For `C(=NCCc1ccccc1)c1ccccc1B1OB(c2ccccc2C=NCCc2ccccc2)OB(c2ccccc2C=NCCc2ccccc2)O1`, the T/C reads like this: under setting [14], 97 % of control; under setting [2], 91 % of control; under setting [15], 97 % of control; under setting [4], 89 % of control; under setting [16], 102 % of control; under setting [17], 94 % of control.

Turning to `COCc1c(COc2ccc(Cl)cc2)n(C)c2ccccc12`, the T/C by setting is: (dose: 100.0 mg/kg/injection, schedule: Q04DX002 (ip), vehicle: Klucel (hydroxypropylcellulose) (HPC)) 101 % of control; (dose: 200.0 mg/kg/injection, schedule: Q04DX002 (ip), vehicle: Klucel (hydroxypropylcellulose) (HPC)) 92 % of control; (dose: 400.0 mg/kg/injection, schedule: Q04DX002 (ip), vehicle: Klucel (hydroxypropylcellulose) (HPC)) 99 % of control.

For `O=C(O)CCC(NC(=O)c1ccc(Cc2ccc(NC(=O)OCc3ccccc3)cc2)cc1)C(=O)O` (configuration not stated), the T/C is 96 % of control under setting [14]; 97 % of control under setting [2]; 95 % of control under setting [15]; 94 % of control under setting [4]; 93 % of control under setting [16]; 103 % of control under setting [17].

For `CC(C)(C)OC(=O)N1C2C=CC(C2)N1C(=O)OC(C)(C)C`, the T/C is 101 % of control (dose: 100.0 mg/kg/injection, schedule: Q01DX001 (ip), vehicle: other); 102 % of control under setting [2]; 104 % of control (dose: 200.0 mg/kg/injection, schedule: Q01DX001 (ip), vehicle: other); 98 % of control under setting [4]; 96 % of control (dose: 400.0 mg/kg/injection, schedule: Q01DX001 (ip), vehicle: other); 109 % of control under setting [17].

Consider `COc1ccccc1-n1c(O)c(N=Nc2ccccc2C)c(=O)n(-c2ccc(I)cc2)c1=S`, for which the T/C by setting is: (dose: 37.5 mg/kg/injection, schedule: Q01DX001 (ip), vehicle: Klucel (hydroxypropylcellulose) (HPC)) 89 % of control; (dose: 75.0 mg/kg/injection, schedule: Q01DX001 (ip), vehicle: Klucel (hydroxypropylcellulose) (HPC)) 92 % of control; (dose: 150.0 mg/kg/injection, schedule: Q01DX001 (ip), vehicle: Klucel (hydroxypropylcellulose) (HPC)) 97 % of control.

On to `O=COCC1CCC(NC(=O)N(CCCl)N=O)CC1` (configuration not stated), for which the T/C is, setting by setting: (dose: 2.6 mg/kg/injection, schedule: Q01DX001 (ip), vehicle: Klucel (hydroxypropylcellulose) (HPC)) 103 % of control; (dose: 4.0 mg/kg/injection, schedule: Q01DX001 (ip), vehicle: Klucel (hydroxypropylcellulose) (HPC)) 111 % of control; (dose: 6.0 mg/kg/injection, schedule: Q01DX001 (ip), vehicle: Klucel (hydroxypropylcellulose) (HPC)) 123 % of control; (dose: 9.0 mg/kg/injection, schedule: Q01DX001 (ip), vehicle: Klucel (hydroxypropylcellulose) (HPC)) 227 % of control; (dose: 12.0 mg/kg/injection, schedule: Q01DX001 (ip), vehicle: Klucel (hydroxypropylcellulose) (HPC)) 293 % of control and 319 % of control; (dose: 15.0 mg/kg/injection, schedule: Q01DX001 (ip), vehicle: Klucel (hydroxypropylcellulose) (HPC)) 273 % of control. Besides, the T/C (dose: 18.0 mg/kg/injection, schedule: Q01DX001 (ip), vehicle: Klucel (hydroxypropylcellulose) (HPC)) was 328 % of control and the T/C (dose: 26.0 mg/kg/injection, schedule: Q01DX001 (ip), vehicle: Klucel (hydroxypropylcellulose) (HPC)) is 280 % of control.

As for `O=C1CC(N2CC2)C(=O)N1c1ccccc1` (configuration not stated), the T/C is 104 % of control under setting [14]; 105 % of control under setting [2]; 92 % of control under setting [15]; 113 % of control under setting [4]; 88 % of control under setting [17].
